From patent US20260356856A1, “KRAS G12S AND G12C INHIBITORS” (MIRATI THERAPEUTICS, INC., priority 2023, published 2026)

What was measured:
[1] = target: T1, KRas-mediated phosphorylation of ERK in H358 cells (Homo sapiens, UniProt P01116, G12C); assay: Inhibition of KRas-mediated phosphorylation of ERK (HTRF), H358 cells; format: cell-based; conditions: HTRF pERK, 3 h incubation
T1 construct: pERK HTRF read-out

[2] = target: T2, KRas-mediated phosphorylation of ERK in MKN1 cells (Homo sapiens, UniProt P01116); assay: Inhibition of KRas-mediated phosphorylation of ERK (HTRF), MKN1 cells; format: cell-based; conditions: MKN1 cells (KRas WT); HTRF pERK; 3 h incubation
T2 construct: pERK HTRF read-out
T2 sequence (P01116 1-188 isoform P01116-2): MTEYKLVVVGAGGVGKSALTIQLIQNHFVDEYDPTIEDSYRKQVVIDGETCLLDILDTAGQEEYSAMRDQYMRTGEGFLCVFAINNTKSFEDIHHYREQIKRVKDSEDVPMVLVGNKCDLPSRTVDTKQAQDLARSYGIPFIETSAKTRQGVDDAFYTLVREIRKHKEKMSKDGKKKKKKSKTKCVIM
Method: Inhibition of KRas Phosphorylation of ERK (HTRF) by Exemplary Compounds of Formula (Ia) or (Ib)
Cisbio HTRF Advanced pERK Assay Catalog #64AERPEH • Cells: MKN1, PSN1 • Procedure: • 1. Day 1: Seed 6,000 cells/well −25 μl/well in 384-well white solid bottom plate; RPM1_10% FBS. Incubate overnight at 37 °C/5% CO2. • 2.

[3] = target: T3, KRas-mediated phosphorylation of ERK in A549 cells (Homo sapiens, UniProt P01116, G12S); assay: Inhibition of KRas-mediated phosphorylation of ERK (HTRF), A549 cells; format: cell-based; conditions: HTRF pERK, 3 h incubation
T3 construct: pERK HTRF read-out
T3 sequence (P01116 1-188 isoform P01116-2 G12S): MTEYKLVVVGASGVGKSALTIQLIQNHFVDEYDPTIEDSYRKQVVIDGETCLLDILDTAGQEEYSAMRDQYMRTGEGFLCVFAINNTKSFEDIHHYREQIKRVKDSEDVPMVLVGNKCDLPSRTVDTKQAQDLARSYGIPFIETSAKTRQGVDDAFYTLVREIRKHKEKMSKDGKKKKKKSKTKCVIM

KRas G12S = target: T4, KRas G12S (Homo sapiens, UniProt P01116, G12S); assay: KRas binding assay, TR-FRET displacement of Cy5 labelled tracer; conditions: 60-minute incubation at room temperature, 1% DMSO, pH 7.5
T4 construct: Biotinylated KRas (corresponding to amino acids 1-169, produced at Accelegan Inc.); biotin (biotinylated); purchased Accelegan Inc
T4 sequence (P01116 1-169 isoform P01116-2 G12S): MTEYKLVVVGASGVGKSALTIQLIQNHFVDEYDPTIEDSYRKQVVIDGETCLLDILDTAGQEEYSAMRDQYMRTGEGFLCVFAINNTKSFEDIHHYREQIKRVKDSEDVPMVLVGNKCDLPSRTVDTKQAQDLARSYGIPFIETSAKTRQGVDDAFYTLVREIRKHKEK
Summary of the method: (§1)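 KRas aa 1-169, biotinylated; Tb-streptavidin donor; 1% DMSO final. Buffer: HEPES 50 mM (pH 7.5), MgCl2 5 mM, DTT 1 mM, Tween-20 0.005%. 60 min, RT. IC50 from 4-parameter fit of POC.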

KRas WT = target: T5, KRas WT (Homo sapiens, UniProt P01116); assay: as above; conditions: 60-minute incubation at room temperature, 1% DMSO, pH 7.5
T5 construct: Biotinylated KRas (corresponding to amino acids 1-169, produced at Accelegan Inc.); biotin (biotinylated); purchased Accelegan Inc
T5 sequence (P01116 1-169 isoform P01116-2): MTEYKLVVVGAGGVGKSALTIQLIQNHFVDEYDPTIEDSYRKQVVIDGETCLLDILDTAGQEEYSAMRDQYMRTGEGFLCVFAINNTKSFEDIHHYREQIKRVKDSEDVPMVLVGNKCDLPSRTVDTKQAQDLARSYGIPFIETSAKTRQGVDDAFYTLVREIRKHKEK
Summary of the method: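 Tb-streptavidin captured biotinylated KRas (1-169) in HEPES 50 mM, DTT 1 mM, MgCl2 5 mM, Tween-20 0.005% (pH 7.5), alongside tracer and compound at 1% final DMSO. One hour at RT, then read; IC50 from 4-parameter POC fit.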

KRas G12C = target: T6, KRas G12C (Homo sapiens, UniProt P01116, G12C); assay: as above; conditions: 60-minute incubation at room temperature, 1% DMSO, pH 7.5
T6 construct: Biotinylated KRas (corresponding to amino acids 1-169, produced at Accelegan Inc.); biotin (biotinylated); purchased Accelegan Inc
T6 sequence (P01116 1-169 isoform P01116-2 G12C): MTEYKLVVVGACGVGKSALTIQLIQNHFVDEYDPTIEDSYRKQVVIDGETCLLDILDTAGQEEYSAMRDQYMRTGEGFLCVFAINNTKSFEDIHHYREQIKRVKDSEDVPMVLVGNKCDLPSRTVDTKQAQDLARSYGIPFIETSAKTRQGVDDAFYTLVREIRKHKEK
Summary of the method: as §1

T1 sequence (P01116 1-188 isoform P01116-2 G12C): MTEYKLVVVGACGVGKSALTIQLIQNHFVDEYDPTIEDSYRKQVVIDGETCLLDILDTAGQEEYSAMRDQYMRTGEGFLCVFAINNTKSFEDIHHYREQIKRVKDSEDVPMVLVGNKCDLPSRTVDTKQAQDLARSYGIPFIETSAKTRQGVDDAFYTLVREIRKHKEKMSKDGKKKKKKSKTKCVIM

Structure (SMILES)	IC50 [1]	IC50 [2]	IC50 [3]	IC50 (KRas G12S)	IC50 (KRas WT)	IC50 (KRas G12C)
CN(CCCC(=O)N(C)c1ccncn1)c1nc(OC[C@@]23CCCN2C[C@H](F)C3)nc2c(F)c(-c3ccc(F)c4sc(N)c(C#N)c34)c(Cl)cc12 [Example 268, 4-((7-(2-amino-3-cyano-7-fluorobenzo[b]thiophen-4-yl)-6-chloro-8-fluoro-2-(((2R,7aS)-2-fluorotetrahydro-1H-pyrrolizin-7a(5H)-yl)methoxy)quinazolin-4-yl)(methyl)amino)-N-methyl-N-(pyrimidin-4-yl) butanamide]	75 nM	205 nM	266 nM	9 nM	11 nM	5 nM
CCc1cc(O)cc2cccc(-c3c(Cl)cc4c(N5CCCC(C(=O)n6ccc(C)n6)CC5)nc(OC[C@@]56CCCN5C[C@H](F)C6)nc4c3F)c12 (stereo partly drawn) [Example 264, (1-(6-chloro-7-(8-ethyl-6-hydroxynaphthalen-1-yl)-8-fluoro-2-(((2R,7aS)-2-fluorotetrahydro-1H-pyrrolizin-7a(5H)-yl)methoxy)quinazolin-4-yl)azepan-4-yl)(3-methyl-1H-pyrazol-1-yl)methanone]	847 nM	3490 nM	138 nM	232 nM	732 nM	170 nM
CC(C)C(=O)N(C)C(=O)C1CCN(c2nc(OC[C@@]34CCCN3C[C@H](F)C4)nc3c(F)c(-c4ccc(F)c5sc(N)c(C#N)c45)c(Cl)cc23)CC1 [Example 206, 1-(7-(2-amino-3-cyano-7-fluorobenzo[b]thiophen-4-yl)-6-chloro-8-fluoro-2-(((2R,7aS)-2-fluorotetrahydro-1H-pyrrolizin-7a(5H)-yl)methoxy)quinazolin-4-yl)-N-isobutyryl-N-methylpiperidine-4-carboxamide]	31 nM	26 nM	82 nM	9 nM	8 nM	7 nM
CCc1c(F)ccc2cc(O)cc(-c3ncc4c(N5CC(CC(=O)N(C)C(C)=O)C5)nc(OC[C@@]56CCCN5C[C@H](F)C6)nc4c3F)c12 [Example 276, N-acetyl-2-(1-(7-(8-ethyl-7-fluoro-3-hydroxynaphthalen-1-yl)-8-fluoro-2-(((2R,7aS)-2-fluorotetrahydro-1H-pyrrolizin-7a(5H)-yl)methoxy)pyrido[4,3-d]pyrimidin-4-yl)azetidin-3-yl)-N-methylacetamide]	1480 nM	1030 nM	101 nM	68 nM	148 nM	129 nM
CC(=O)N(C)C(=O)[C@H]1CCCN(c2nc(OC[C@@]34CCCN3C[C@H](F)C4)nc3c(F)c(-c4ccc(F)c5sc(N)c(C#N)c45)c(Cl)cc23)CC1 (atropisomer, axis not shown; (aS)) [Example 256, (S)—N-acetyl-1-((S)-7-(2-amino-3-cyano-7-fluorobenzo[b]thiophen-4-yl)-6-chloro-8-fluoro-2-(((2R,7aS)-2-fluorotetrahydro-1H-pyrrolizin-7a(5H)-yl)methoxy)quinazolin-4-yl)-N-methylazepane-4-carboxamide]	8 nM	19 nM	3 nM	2 nM	4 nM	5 nM
N#Cc1c(N)sc2c(F)ccc(-c3c(Cl)cc4c(N5CCC(C(=O)Oc6ccc(Cl)cc6)CC5)nc(OC[C@@]56CCCN5C[C@H](F)C6)nc4c3F)c12 [Example 301, 4-chlorophenyl 1-(7-(2-amino-3-cyano-7-fluorobenzo[b]thiophen-4-yl)-6-chloro-8-fluoro-2-(((2R,7aS)-2-fluorotetrahydro-1H-pyrrolizin-7a(5H)-yl)methoxy)quinazolin-4-yl)piperidine-4-carboxylate]	20 nM	264 nM	113 nM	43 nM	142 nM	16 nM
CCc1c(F)ccc2cc(O)cc(-c3ncc4c(N(C)CCC(=O)n5ccc(C)n5)nc(OC[C@@]56CCCN5C[C@H](F)C6)nc4c3F)c12 [Example 121, 3-((7-(8-ethyl-7-fluoro-3-hydroxynaphthalen-1-yl)-8-fluoro-2-(((2R,7aS)-2-fluorotetrahydro-1H-pyrrolizin-7a(5H)-yl)methoxy)pyrido[4,3-d]pyrimidin-4-yl)(methyl)amino)-1-(3-methyl-1H-pyrazol-1-yl) propan-1-one]	382 nM	875 nM	243 nM	16 nM	30 nM	16 nM
N#Cc1c(N)sc2c(F)ccc(-c3c(C(F)(F)F)cc4c(N5CCC(C(=O)Oc6ccccc6)CC5)nc(OC[C@@]56CCCN5C[C@H](F)C6)nc4c3F)c12 [Example 295, phenyl 1-(7-(2-amino-3-cyano-7-fluorobenzo[b]thiophen-4-yl)-8-fluoro-2-(((2R,7aS)-2-fluorotetrahydro-1H-pyrrolizin-7a(5H)-yl)methoxy)-6-(trifluoromethyl)quinazolin-4-yl)piperidine-4-carboxylate]	5 nM	56 nM	14 nM	12 nM	44 nM	11 nM
CN(CCCC(=O)N(C)c1ccncc1)c1nc(OC[C@@]23CCCN2C[C@H](F)C3)nc2c(F)c(-c3ccc(F)c4sc(N)c(C#N)c34)c(Cl)cc12 [Example 267, 4-((7-(2-amino-3-cyano-7-fluorobenzo[b]thiophen-4-yl)-6-chloro-8-fluoro-2-(((2R,7aS)-2-fluorotetrahydro-1H-pyrrolizin-7a(5H)-yl)methoxy)quinazolin-4-yl)(methyl)amino)-N-methyl-N-(pyridin-4-yl) butanamide]	230 nM	354 nM	653 nM	8 nM	9 nM	5 nM
CC(=O)N(C)C(=O)[C@H]1C[C@@H]2CN(c3nc(OC[C@@]45CCCN4C[C@H](F)C5)nc4c(F)c(-c5ccc(F)c6sc(N)c(C#N)c56)c(Cl)cc34)C[C@@H]2C1 (atropisomer, axis not shown; (aR)) [Example 236, (3aR,5S,6aS)-N-acetyl-2-((S)-7-(2-amino-3-cyano-7-fluorobenzo[b]thiophen-4-yl)-6-chloro-8-fluoro-2-(((2R,7aS)-2-fluorotetrahydro-1H-pyrrolizin-7a(5H)-yl)methoxy)quinazolin-4-yl)-N-methyloctahydrocyclopenta[c]pyrrole-5-carboxamide]	108 nM	41 nM	104 nM	15 nM	10 nM	7 nM
CC(=O)N(C)C(=O)C1CCN(c2nc(OC[C@@]34CCCN3C[C@H](F)C4)nc3c(F)c(-c4ccc(F)c5sc(N)c(C#N)c45)c(Cl)cc23)CC1 [Example 254, N-acetyl-1-((S)-7-(2-amino-3-cyano-7-fluorobenzo[b]thiophen-4-yl)-6-chloro-8-fluoro-2-(((2R,7aS)-2-fluorotetrahydro-1H-pyrrolizin-7a(5H)-yl)methoxy)quinazolin-4-yl)-N-methylpiperidine-4-carboxamide]	29 nM	18 nM	5 nM	3 nM	4 nM	3 nM
CCc1c(F)ccc2cc(O)cc(-c3ncc4c(N(C)CCCS(=O)(=O)n5cccn5)nc(OC[C@@]56CCCN5C[C@H](F)C6)nc4c3F)c12 [Example 230, 4-(4-((3-((1H-pyrazol-1-yl)sulfonyl)propyl)(methyl)amino)-8-fluoro-2-(((2R,7aS)-2-fluorotetrahydro-1H-pyrrolizin-7a(5H)-yl)methoxy)pyrido[4,3-d]pyrimidin-7-yl)-5-ethyl-6-fluoronaphthalen-2-ol]	1500 nM	394 nM	4350 nM	123 nM	91 nM	134 nM
Cc1ccn(C(=O)C2CCCN(c3nc(OC[C@@]45CCCN4C[C@H](F)C5)nc4c(F)c(-c5ccc(F)c6sc(N)c(C#N)c56)c(Cl)cc34)C2)n1 (stereo partly drawn) [Example 132, 2-amino-4-(6-chloro-8-fluoro-2-(((2R,7aS)-2-fluorotetrahydro-1H-pyrrolizin-7a(5H)-yl)methoxy)-4-(3-(3-methyl-1H-pyrazole-1-carbonyl)piperidin-1-yl)quinazolin-7-yl)-7-fluorobenzo[b]thiophene-3-carbonitrile]	1200 nM	404 nM	> 10000 nM	17 nM	25 nM	19 nM
CCc1c(F)ccc2cc(O)cc(-c3ncc4c(N5CCC(C(=O)n6ccc(C)n6)CC5)nc(OC[C@@]56CCCN5C[C@H](F)C6)nc4c3F)c12 [Example 1, (1-(7-(8-ethyl-7-fluoro-3-hydroxynaphthalen-1-yl)-8-fluoro-2-(((2R,7aS)-2-fluorotetrahydro-1H-pyrrolizin-7a(5H)-yl)methoxy)pyrido[4,3-d]pyrimidin-4-yl)piperidin-4-yl)(3-methyl-1H-pyrazol-1-yl)methanone]	3720 nM	4000 nM	109 nM	36 nM	63 nM	77 nM
